Like-named read-outs stand apart in the source and are kept apart here.
Tests used:
RD TE32 = assay: MTT cell viability assay, RD TE32; type: cell-based, human; settings: for IC50: Homo sapiens; for Selectivity index (SI): ratio of IC50 values healthy (HEK293) / RD TE32
Excerpt: (§1) Blokhin National Medical Research Center of Oncology (the Ministry of Health of the Russian Federation, Moscow).

HCT116 = assay: MTT cell viability assay, HCT116; type: cell-based, human; settings: for IC50: Homo sapiens, HCT-116; for Selectivity index (SI): ratio of IC50 values healthy (HEK293) / HCT116
Excerpt: as §1

PC-3 = assay: MTT cell viability assay, PC-3; type: cell-based, human; settings: for IC50: Homo sapiens; for Selectivity index (SI): ratio of IC50 values healthy (HEK293) / PC-3
Excerpt: as §1

MS = assay: MTT cell viability assay, MS; type: cell-based, human; settings: for IC50: Homo sapiens; for Selectivity index (SI): ratio of IC50 values healthy (HEK293) / MS;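 for IC50 (mean ± SD): MS is a melanocyte cell line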
Excerpt: as §1

HEpG2 = assay: MTT cell viability assay, HEpG2; type: cell-based, human; settings: for IC50: Homo sapiens; for Selectivity index (SI): ratio of IC50 values healthy (HEK293) / HEpG2
Excerpt: as §1

HBL-100 = assay: MTT cell viability assay, HBL-100; type: cell-based, human; settings: for IC50: Homo sapiens; for Selectivity index (SI): ratio of IC50 values healthy (HEK293) / HBL-100
Procedure: (§2) The cells were cultured in a humidified CO2 incubator (model 460-CE; Thermo Fisher Scientific, Waltham, MA, USA) at +37 °C and 5% CO2.
(§3) The percentage of the viable cells was calculated according to the following equation: cell viability (%) = 100 × (mean absorbance in the treatment group/mean absorbance in the control group). The results were expressed pictorially using Prism 6.0 (GraphPad Software, Boston, MA, USA).

HEK293 = assay: MTT cell viability assay, HEK293; type: cell-based; settings: Homo sapiens
Excerpt: as §1

MCF-7 = assay: MTT cell viability assay, MCF-7; type: cell-based, human; settings: for IC50: Homo sapiens, MCF7; for Selectivity index (SI): ratio of IC50 values healthy (HEK293) / MCF-7
Excerpt: as §1

A549 = assay: MTT cell viability assay, A549; type: cell-based, human; settings: for IC50: Homo sapiens; for Selectivity index (SI): ratio of IC50 values healthy (HEK293) / A549
Excerpt: as §1

HBL-100/Dox = assay: MTT cell viability assay, HBL-100/Dox; type: cell-based, human; settings: for IC50: Homo sapiens; for Selectivity index (SI): ratio of IC50 values healthy (HEK293) / HBL-100/Dox
Procedure: as §2, §3

human cancer cell lines = assay: MTT assay, panel of cancer cell lines; settings: for IC50: Homo sapiens; for cytotoxicity in the screening studies: MTT screening, Table S1
Procedure: In this study, the human embryonic kidney cell line HEK293 was used as the non-cancerous cell line.
To investigate the cytotoxic activity of the compounds under study, the MTT colorimetric assay [45] was performed. […] After 72 h, 20 μL of 5 mg/mL solution of MTT (PanEco, Moscow, Russia), in sterile phosphate-buffered saline (PBS; PanEco, Moscow, Russia), was added to each well and further incubated for 4 h. Then, the medium with the compounds was removed, and the formed formazan crystals were dissolved in 100 μL of DMSO. […] The IC50 values were determined from dose-dependent curves, using Prism 6.0 (GraphPad Software, Boston, MA, USA).

[1] = RD TE32, MTT, 72 h of treatment, read-out: IC50 Values (Mean ± SD)
[2] = Table S1, RD TE32, read-out: IC50 (mean ± SD)
[3] = HCT116, MTT, 72 h of treatment, read-out: IC50 Values (Mean ± SD)
[4] = Table S1, HCT116, read-out: IC50 (mean ± SD)
[5] = PC-3, MTT, 72 h of treatment, read-out: IC50 Values (Mean ± SD)
[6] = Table S1, PC-3, read-out: IC50 (mean ± SD)
[7] = MS, MTT, 72 h of treatment, read-out: IC50 Values (Mean ± SD)
[8] = HEpG2, MTT, 72 h of treatment, read-out: IC50 Values (Mean ± SD)
[9] = HBL-100, MTT, 72 h of treatment, read-out: IC50 Values (Mean ± SD)
[10] = Table S1, HBL-100, read-out: IC50 (mean ± SD)
[11] = HEK293, MTT, 72 h of treatment, read-out: IC50 Values (Mean ± SD)
[12] = Table S1, HEK293, read-out: IC50 (mean ± SD)
[13] = MCF-7, MTT, 72 h of treatment, read-out: IC50 Values (Mean ± SD)
[14] = A549, MTT, 72 h of treatment, read-out: IC50 Values (Mean ± SD)
[15] = Table S1, A549, read-out: IC50 (mean ± SD)
[16] = HBL-100, 72 h, read-out: IC50 Values (Mean ± SD)
[17] = HBL-100, read-out: IC50 (mean ± SD)
[18] = read-out: moderate activity (range)
[19] = Table S1, MS, read-out: IC50 (mean ± SD)
[20] = Table S1, MCF-7, read-out: IC50 (mean ± SD)
[21] = Table S1, HEpG2, read-out: IC50 (mean ± SD)

SMILES	IC50 (RD TE32; [1]) [µM]	IC50 (RD TE32; [2]) [µM]	Selectivity index (SI) (RD TE32)	IC50 (HCT116; [3]) [µM]	IC50 (HCT116; [4]) [µM]	Selectivity index (SI) (HCT116)	IC50 (PC-3; [5]) [µM]	IC50 (PC-3; [6]) [µM]	Selectivity index (SI) (PC-3)	IC50 (MS; [7]) [µM]	Selectivity index (SI) (MS)	IC50 (HEpG2; [8]) [µM]	Selectivity index (SI) (HEpG2)	IC50 (HBL-100; [9]) [µM]	IC50 (HBL-100; [10]) [µM]	melting point [°C]	IC50 (HEK293; [12]) [µM]	IC50 (A549; [15]) [µM]	IC50 (HBL-100/Dox; [17]) [µM]	IC50 (MCF-7; [20]) [µM]	further results
COC(=O)[C@]12CCC(C(C)C)C1C1CCC3[C@@]4(C)C[C@@H](C#N)C[C@H](O)C4CC[C@@]3(C)[C@]1(C)CC2 (stereo partly drawn) [compound 19, 2-Cyano-4β-hydroxy-3,4-seco-3,23-dinor-2,24-cyclolup-28-oic acid methyl ester]	25.2 ± 0.1	25.17 ± 0.11	1.37	28.2 ± 2.1	28.2 ± 2.06	1.23	17.2 ± 0.7	17.2 ± 0.69	2.01	22.2 ± 2	1.56	31.8 ± 2.7	1.09	16 ± 0.9	16 ± 0.94	189.7	34.6 ± 1.09	25.9 ± 1.75	21.1 ± 2.23	–	Selectivity index (SI) (HBL-100): 2.16; IC50 (HEK293; [11]): 34.6 ± 1.1 µM; IC50 (MCF-7; [13]): 47.9 ± 0.3 µM; Selectivity index (SI) (MCF-7): 0.72; IC50 (A549; [14]): 25.9 ± 1.8 µM; Selectivity index (SI) (A549): 1.34; IC50 (HBL-100/Dox; [16]): 21.1 ± 2.2 µM; Selectivity index (SI) (HBL-100/Dox): 1.64; IC50 (human cancer cell lines; [18]): 16 to 77.8 µM; cytotoxicity in the screening studies (human cancer cell lines): relatively weak or moderate cytotoxicity
COC(=O)[C@]12CCC(C(C)C)C1C1CCC3[C@@](C)(CCC#N)C(C(=O)CBr)CC[C@@]3(C)[C@]1(C)CC2 (some centres unmarked) [compound 30, 24-Bromo-2-cyano-4-oxo-3,4-seco-3,23-dinorlupan-28-oic acid methyl ester]	7.1 ± 0.9	7.05 ± 0.91	3.41	13.5 ± 0.3	–	1.79	34 ± 1.3	34.1 ± 1.28	0.71	45.9 ± 2.2	0.53	49.6 ± 0.5	0.49	3.6 ± 0.3	3.62 ± 0.33	124.4	24.2 ± 0.45	27.7 ± 0.31	4.53 ± 0.21	12.04 ± 0.06	IC50 (MS; [19]): 46 ± 2.2 µM; Selectivity index (SI) (HBL-100): 6.72; IC50 (HEK293; [11]): 24.2 ± 0.5 µM; IC50 (MCF-7; [13]): 12 ± 0.1 µM; Selectivity index (SI) (MCF-7): 2.02; IC50 (A549; [14]): 27.7 ± 0.3 µM; Selectivity index (SI) (A549): 0.87; IC50 (HBL-100/Dox; [16]): 4.5 ± 0.2 µM; Selectivity index (SI) (HBL-100/Dox): 5.37; IC50 (human cancer cell lines; read-out: cytotoxic values (range)): 3.6 to 13.5 µM; cytotoxicity in the screening studies (human cancer cell lines): relatively weak or moderate cytotoxicity
COC(=O)[C@]12CCC(C(C)C)C1C1CCC3[C@@]4(C)C[C@@H](C#N)CC(=O)C4CC[C@@]3(C)[C@]1(C)CC2 (some centres unmarked) [compound 17, 2-Cyano-4-oxo-3,4-seco-3,23-dinor-2,24-cyclolup-28-oic acid methyl ester]	–	> 100	–	–	> 100	–	–	> 100	–	–	–	–	–	–	> 200	220.8	> 100	> 100	> 200	> 100	IC50 (MS; [19]): > 100 µM; IC50 (HEpG2; [21]): > 100 µM
C=C(CBr)C1CC[C@]2(C)C(CCC3C4C(C(C)C)CC[C@]4(COC(=O)c4ccccc4)CC[C@]32C)[C@@]1(C)CCC#N (some centres unmarked) [compound 6, 28-Benzoyloxy-24-bromo-2-cyano-3,4-seco-3-norlup-4(23)-ene]	–	> 200	–	–	> 200	–	–	> 100	–	–	–	–	–	–	> 100	87.9	> 200	> 100	> 200	> 200	IC50 (MS; [19]): > 100 µM; IC50 (HEpG2; [21]): > 100 µM
C=C1C[C@H](C#N)C[C@@]2(C)C1CC[C@]1(C)C2CCC2C3C(C(C)C)CC[C@]3(CO)CC[C@]21C (some centres unmarked) [compound 12, 2-Cyano-28-hydroxy-3,4-seco-3-nor-2,24-cyclolup-4(23)-ene]	98.6 ± 2.3	98.6 ± 2.33	0.78	51 ± 3.7	51 ± 3.67	1.50	55.7 ± 4.9	55.7 ± 4.89	1.37	> 200	< 0.38	> 100	< 0.77	36.6 ± 1.4	36.6 ± 1.44	185.1	76.5 ± 2.49	–	63 ± 1.92	64.2 ± 3.01	Selectivity index (SI) (HBL-100): 2.09; IC50 (HEK293; [11]): 76.5 ± 2.5 µM; IC50 (MCF-7; [13]): 64.2 ± 3 µM; Selectivity index (SI) (MCF-7): 1.19; IC50 (A549; [14]): 44.4 ± 2.4 µM; Selectivity index (SI) (A549): 1.72; IC50 (HBL-100/Dox; [16]): 63 ± 1.9 µM; Selectivity index (SI) (HBL-100/Dox): 1.21; IC50 (human cancer cell lines; [18]): 16 to 77.8 µM; cytotoxicity in the screening studies (human cancer cell lines): relatively weak or moderate cytotoxicity
CC(C)C1CC[C@]2(CO)CC[C@]3(C)C(CCC4[C@@]5(C)CC(C#N)=CC(=O)C5CC[C@]43C)C12 (some centres unmarked) [compound 14, 2-Cyano-28-hydroxy-4-oxo-3,4-seco-3,23-dinor-2,24-cyclolup-2(24)-ene]	49.1 ± 1.4	–	1.58	49.9 ± 0.1	–	1.56	28.3 ± 2.3	28.3 ± 2.29	2.75	69.1 ± 1	1.13	> 100	< 0.78	46.9 ± 2.2	46.9 ± 2.22	121	77.8 ± 2.9	63.2 ± 1.42	54 ± 1.82	56.7 ± 3.72	Selectivity index (SI) (HBL-100): 1.66; IC50 (HEK293; [11]): 77.8 ± 2.9 µM; IC50 (MCF-7; [13]): 56.7 ± 3.7 µM; Selectivity index (SI) (MCF-7): 1.37; IC50 (A549; [14]): 63.2 ± 1.4 µM; Selectivity index (SI) (A549): 1.23; IC50 (HBL-100/Dox; [16]): 54 ± 1.8 µM; Selectivity index (SI) (HBL-100/Dox): 1.44; IC50 (human cancer cell lines; [18]): 16 to 77.8 µM; cytotoxicity in the screening studies (human cancer cell lines): relatively weak or moderate cytotoxicity
C=C1C=C(C#N)C[C@@]2(C)C1CC[C@]1(C)C2CCC2C3C(C(C)C)CC[C@]3(C(=O)OC)CC[C@]21C (some centres unmarked) [compound 10, 2-Cyano-3,4-seco-3-nor-2,24-cyclolup-2(24),4(23)-dien-28-oic acid methyl ester]	–	> 100	–	–	> 200	–	–	> 100	–	–	–	–	–	–	> 100	76.6	> 200	> 100	> 200	> 100	IC50 (MS; [19]): > 100 µM; IC50 (HEpG2; [21]): > 100 µM

— article PMC10298530, “Synthesis and Anticancer Activity of A-Ring-Modified Derivatives of Dihydrobetulin” (International Journal of Molecular Sciences, 2023)
